Reference: patent US12116370B2, “Condensed heterocyclic compound having a bridgehead nitrogen atom or salt thereof, agricultural or horticultural insecticide comprising the compound, and method for using the insecticide” (Nihon Nohyaku Co., Ltd., priority 2019, dated 2024)

Columns and labels:
Assay type in all cases: in vivo
Laodelphax striatellus = assay: Insecticidal test on Laodelphax striatellus; settings: in Oryza sativa, 192 h, read-out: insecticidal efficacy (corrected mortality rate) activity level
Description: The condensed heterocyclic compounds having a bridgehead nitrogen atom represented by the general formula (1) of the present invention or salts thereof were separately dispersed in water and diluted to 500 ppm. Rice plant seedlings (variety: Nihonbare) were dipped in the agrochemical dispersions for 30 seconds. After air-dried, each seedling was put into a separate glass test tube and inoculated with ten 3rd-instar larvae of L. striatellus, and then the glass test tubes were capped with cotton plugs. At 8 days after the inoculation, the numbers of surviving larvae and dead larvae of L. striatellus were counted, the corrected mortality rate was calculated according to the formula shown below, and the insecticidal efficacy was evaluated according to the criteria of Test Example 1.

Plutella xylostella = assay: Insecticidal test on Plutella xylostella; settings: in Brassica rapa, 144 h, read-out: insecticidal efficacy (mortality rate) activity level
Description: Adults of P. xylostella were released onto Chinese cabbage seedlings and allowed to lay eggs thereon. At 2 days after the release of the adults, the Chinese cabbage seedlings with laid eggs were dipped for about 30 seconds in agrochemical formulations diluted to 500 ppm, each of which contained a different kind of condensed heterocyclic compound having a bridgehead nitrogen atom represented by the general formula (1) of the present invention as an active ingredient. After air-dried, the seedlings were kept in a thermostatic chamber at 25° C. At 6 days after the dip treatment, the number of hatched larvae per plot was counted, the mortality rate of P. xylostella was calculated according to the formula shown below, and the insecticidal efficacy was evaluated according to the criteria of Test Example 1. This test was conducted in triplicate using 10 adults of P. xylostella per plot.

[1] = system: L1 stage larvae of H. contortus; assay: Larval motility assay on Haemonchus contortus; settings: 96 h, 4 days, relative to DMSO only, read-out: percent motility inhibition
Method: Dimethyl sulfoxide (DMSO) diluted solutions of various compounds of the present invention were added at the final concentration of 50 ppm to the wells of a 96-well plate containing a predetermined conditioned medium. Twenty L1 stage larvae of H. contortus were introduced into each well of the 96-well plate. The plate was allowed to stand for 4 days, and then larval motility was examined. The percent motility inhibition in the wells of each treatment was calculated relative to the wells of treatment with DMSO only.

[2] = system: L1 stage larvae of D. immitis; assay: Larval motility assay on Dirofilaria immitis; settings: 72 h, 3 days, relative to DMSO only, read-out: percent motility inhibition
Method: Five hundred L1 stage larvae of D. immitis were diluted in a predetermined conditioned medium and introduced into each well of a 96-well plate. DMSO diluted solutions of various compounds of the present invention were added at the final concentration of 50 ppm to the wells of the 96-well plate. The plate was allowed to stand for 3 days, and then larval motility was examined. The percent motility inhibition in the wells of each treatment was calculated relative to the wells of treatment with DMSO only.

[3] = system: adults of Ctenocephalides felis; assay: Assay for oral parasiticidal activity against adults of Ctenocephalides felis; settings: read-out: mortality rate
Method: Newly-emerged adults of C. felis were placed into test cages (10 adults per test cage). DMSO diluted solutions of various compounds of the present invention were added to aliquots of bovine blood at the final concentration of 50 ppm and orally administered to the adults of C. felis using a feeder. The mortality rate was examined on the following day. Aberrant adults were regarded as the dead.

## CCS(=O)(=O)c1cc(/C=N/OCC(F)F)cnc1-c1nc2cc(C(F)(F)F)ccn2n1 [Compound 1-7]
Laodelphax striatellus
  mortality at 500 ppm: 100%
Plutella xylostella
  mortality at 500 ppm: 100%
[1]
  inhibition at 50 ppm: ≥ 50%
[2]
  inhibition at 50 ppm: ≥ 50%
[3]
  mortality at 50 ppm: ≥ 50%

## CCS(=O)(=O)c1ccc(/C=N/OCC(F)(F)F)nc1-c1nc2cc(C(F)(F)C(F)(F)F)ncn2n1 [Compound 2-42, 5-ethylsulfonyl-6-(7-pentafluoroethyl-[1,2,4]triazolo[1,5-c]pyridin-2-yl)picolinaldehyde O-(2,2,2-trifluoroethyl)oxime]
Laodelphax striatellus
  mortality at 500 ppm: 100%
Plutella xylostella
  mortality at 500 ppm: 100%

## CCS(=O)(=O)c1cc(/C(=N/OCCSC)OC)cnc1-c1nc2cc(C(F)(F)F)ccn2n1 [Compound 3-1, methyl 5-ethylsulfonyl-N-(2-methylthioethoxy)-6-(7-(trifluoromethyl)-[1,2,4]triazolo[1,5-a]pyridin-2-yl)nicotinimidate]
Laodelphax striatellus
  mortality at 500 ppm: 100%
Plutella xylostella
  mortality at 500 ppm: 100%

## CCS(=O)(=O)c1cc(/C(Br)=N/OCCSC)cnc1-c1nc2cc(C(F)(F)F)ccn2n1 [Compound 3-19, 5-ethylsulfonyl-N-(2-methylthioethoxy)-6-(7-trifluoromethyl-[1,2,4]triazolo[1,5-a]pyridin-2-yl)nicotinimidoyl bromide]
Laodelphax striatellus
  mortality at 500 ppm: 100%
Plutella xylostella
  mortality at 500 ppm: 100%

## CCS(=O)(=O)c1cc(/C(=N/OCCSC)C2CC2)cnc1-c1nc2cc(C(F)(F)F)ccn2n1 [Compound 3-28]
Laodelphax striatellus
  mortality at 500 ppm: 100%
Plutella xylostella
  mortality at 500 ppm: 100%

## CCS(=O)(=O)c1cc(/C(=N/OCCSC)c2ccccc2)cnc1-c1nc2cc(C(F)(F)F)ccn2n1 [Compound 3-46, (5-ethylsulfonyl-6-(7-trifluoromethyl-[1,2,4]triazolo[1,5-a]pyridin-2-yl)pyridin-3-yl)phenylmethanone O-(2-methylthioethyl)oxime]
Laodelphax striatellus
  mortality at 500 ppm: 100%
Plutella xylostella
  mortality at 500 ppm: 100%
